Test results published in patent US20230074252A1, “DOSAGES AND METHODS FOR TREATING PULMONARY ARTERIAL HYPERTENSION WITH RODATRISTAT” (Altavant Sciences GmbH, priority 2020, published 2023).

Experiments:
MATE1 = target: T1, MATE1 (Homo sapiens, UniProt Q96FL8); test: Transporter inhibition, transporter-expressing in vitro system; assay type: in vitro ADME; conditions: for Potential for interaction? (transporter inhibitor), MATE1: predicted @ 600 mg BID
T1 sequence (Q96FL8 1-570): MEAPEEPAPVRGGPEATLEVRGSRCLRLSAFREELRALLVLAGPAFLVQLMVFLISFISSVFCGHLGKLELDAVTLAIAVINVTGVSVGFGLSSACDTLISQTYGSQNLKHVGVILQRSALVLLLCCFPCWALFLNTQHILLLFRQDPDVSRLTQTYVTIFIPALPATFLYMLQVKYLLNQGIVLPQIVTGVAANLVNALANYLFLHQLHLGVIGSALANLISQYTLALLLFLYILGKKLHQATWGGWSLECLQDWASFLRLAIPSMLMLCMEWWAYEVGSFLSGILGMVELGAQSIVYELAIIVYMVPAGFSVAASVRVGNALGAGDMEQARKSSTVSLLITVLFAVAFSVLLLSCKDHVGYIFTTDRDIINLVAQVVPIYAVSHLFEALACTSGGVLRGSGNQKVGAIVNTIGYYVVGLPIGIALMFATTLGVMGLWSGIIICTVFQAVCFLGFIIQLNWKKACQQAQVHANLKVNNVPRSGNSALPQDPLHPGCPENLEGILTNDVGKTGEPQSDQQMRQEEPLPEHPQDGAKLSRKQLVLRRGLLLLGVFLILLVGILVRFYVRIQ
Method: The competitive inhibition of specific transporters was investigated for RVT-1201 and KAR5417 in transporter-expressing in vitro systems (XT158039). Inhibition of P-gp was evaluated using a Caco-2 cell line with digoxin as probe substrate. Inhibition of OATP1B1 and OATP1B3 was evaluated using a HEK293 cell line expressing these transporters with estradiol-17β-glucuronide as probe substrate. In addition, inhibition of other transporters was also investigated (BCRP, OAT1, OAT3, OCT2, MATE1, MATE2-K). The IC50 estimates for P-gp (RVT-1201) and OATP1B1/3 (RVT-1201 and KAR5417) supported further evaluation of inhibition DDI potential using the PBPK model. For each IC50 estimate, substrate concentration and Km were used to estimate RVT-1201 and KAR5417 Ki with Equation 1 (Cheng and Prusoff, 1973).

CYP2D6 [1] = target: T2, CYP2D6 (Homo sapiens, UniProt P10635); test: FDA guidance DDI risk assessment, perpetrator potential; set-up: from tissue; host or cells: pooled human liver microsomes (n=200 donors); conditions: predicted @ 600 mg BID
Method: (§1) The potential for rodatristat ethyl or rodatristat to be perpetrators of drug-drug interactions was assessed across in vitro CYP and transporter studies (Tables 1-4). […] This analysis was performed to assess the potential for clinically meaningful DDIs as recommended in FDA Draft Guidance: “In Vitro Metabolism- and Transporter-Mediated Drug-Drug Interaction Studies Guidance for Industry”; October 2017 (FDA, 2017).
(§2) R1 and R3 values using free (non-protein bound) drug levels were calculated based on plasma protein binding (fraction bound, fb) of rodatristat ethyl (0.995) and rodatristat (0.991). The FDA Guidance is set forth In Vitro Metabolism- and Transporter-Mediated Drug-Drug Interaction Studies Guidance for Industry (2017). […] Parameters for the prediction are set forth below in Tables 5 and 6.

CYP1A2 = target: T3, CYP1A2 (Homo sapiens, UniProt P05177); test: as above; set-up: from tissue; host or cells: pooled human liver microsomes (n=200 donors); conditions: predicted @ 600 mg BID
T3 sequence (P05177 1-516): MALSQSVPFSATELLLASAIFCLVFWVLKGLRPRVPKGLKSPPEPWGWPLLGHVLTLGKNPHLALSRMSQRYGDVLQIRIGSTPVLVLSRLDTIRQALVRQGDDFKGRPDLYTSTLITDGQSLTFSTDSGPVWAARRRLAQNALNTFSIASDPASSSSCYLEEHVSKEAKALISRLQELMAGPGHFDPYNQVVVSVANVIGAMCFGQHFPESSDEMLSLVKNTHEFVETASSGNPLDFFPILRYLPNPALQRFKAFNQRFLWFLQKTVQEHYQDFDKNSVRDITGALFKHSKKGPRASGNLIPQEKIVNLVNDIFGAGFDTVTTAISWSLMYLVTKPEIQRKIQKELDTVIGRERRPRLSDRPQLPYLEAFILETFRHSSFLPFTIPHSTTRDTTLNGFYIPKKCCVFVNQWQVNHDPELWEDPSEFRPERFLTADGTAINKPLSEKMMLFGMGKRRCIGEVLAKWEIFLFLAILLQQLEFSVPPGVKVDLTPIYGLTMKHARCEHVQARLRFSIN
Method: as §1, §2

CYP2B6 = target: T4, CYP2B6 (Homo sapiens, UniProt P20813); test: as above; set-up: from tissue; host or cells: pooled human liver microsomes (n=200 donors); conditions: predicted @ 600 mg BID
T4 sequence (P20813 1-491): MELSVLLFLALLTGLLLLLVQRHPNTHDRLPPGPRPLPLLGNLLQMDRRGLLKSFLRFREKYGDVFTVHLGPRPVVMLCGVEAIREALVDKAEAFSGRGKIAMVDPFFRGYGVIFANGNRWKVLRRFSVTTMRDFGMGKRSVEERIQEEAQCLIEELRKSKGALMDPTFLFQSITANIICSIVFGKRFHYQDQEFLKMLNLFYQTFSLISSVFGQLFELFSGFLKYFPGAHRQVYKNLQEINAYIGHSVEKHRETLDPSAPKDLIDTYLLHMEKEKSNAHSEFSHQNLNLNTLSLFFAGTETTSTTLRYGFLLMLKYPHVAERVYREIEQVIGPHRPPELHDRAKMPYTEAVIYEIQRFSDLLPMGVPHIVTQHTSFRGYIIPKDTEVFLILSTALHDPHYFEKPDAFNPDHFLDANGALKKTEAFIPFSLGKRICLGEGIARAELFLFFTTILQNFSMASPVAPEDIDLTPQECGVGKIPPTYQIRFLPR
Method: as §1, §2

CYP2D6 [2] = target: T2, CYP2D6; test: In vitro CYP substrate assessment (victim potential); assay type: in vitro ADME
Plasma protein binding = assay type: in vitro ADME, human; conditions: for fraction unbound: human, plasma, read-out: Plasma protein binding (fraction bound) (converted)
Excerpt: This analysis is typically based on non-protein bound drug levels in plasma. Values for plasma protein binding (fraction bound) of rodatristat ethyl and rodatristat were 0.995 and 0.991, respectively.
Calculation of Cmax, u, portal uses plasma Cmax, fraction of an oral dose absorbed (Fa) and measured unbound fraction in blood. For rodatristat, experimentally derived values were used for Fa determined in a rat 14C study (20%) and in vitro binding to human plasma (99.1%) and blood:plasma distribution (RB, 0.72). Walsky et al proposed a threshold where the ratio of Cmax, u, portal/Ki of <0.1 is associated with low risk. […] In the rat, the RE:R is ˜3-fold higher in portal blood compared to the periphery.

T2 sequence (P10635 whole entry): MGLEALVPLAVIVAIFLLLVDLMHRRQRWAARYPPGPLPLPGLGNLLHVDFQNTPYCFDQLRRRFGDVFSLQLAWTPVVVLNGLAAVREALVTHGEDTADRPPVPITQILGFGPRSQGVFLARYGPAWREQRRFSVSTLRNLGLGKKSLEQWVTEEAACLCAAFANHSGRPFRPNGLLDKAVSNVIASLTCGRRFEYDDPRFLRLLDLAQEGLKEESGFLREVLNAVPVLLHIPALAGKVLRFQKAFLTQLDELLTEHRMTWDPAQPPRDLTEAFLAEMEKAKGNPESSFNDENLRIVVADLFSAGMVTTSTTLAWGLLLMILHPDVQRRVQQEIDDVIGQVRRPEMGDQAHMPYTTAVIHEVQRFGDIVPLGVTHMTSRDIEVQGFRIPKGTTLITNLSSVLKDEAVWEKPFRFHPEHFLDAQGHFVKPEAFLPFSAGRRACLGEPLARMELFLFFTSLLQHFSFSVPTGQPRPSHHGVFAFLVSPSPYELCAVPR

Row | SMILES | Potential for interaction? (transporter inhibitor), MATE1 (MATE1) | Potential for interaction (perpetrator), CYP2D6 (CYP2D6 [1]) | Potential for interaction (perpetrator), CYP1A2 (CYP1A2) | Potential for interaction (perpetrator), CYP2B6 (CYP2B6) | In vitro substrate? CYP2D6 (CYP2D6 [2]) | fraction unbound (Plasma protein binding) | inhibition at 30 µM (MATE1; transporter-expressing in vitro system (MATE1), nominal 30 μM) | In vitro binding to human plasma (Plasma protein binding)
1 | CCOC(=O)[C@@H]1CC2(CCN(c3cc(O[C@H](c4ccc(Cl)cc4-c4ccccc4)C(F)(F)F)nc(N)n3)CC2)CN1 [Rodatristat ethyl, (S)-ethyl 8-(2-amino-6-((R)-1-(5-chloro-[1,1′-biphenyl]-2-yl)-2,2,2-trifluoroethoxy)pyrimidin-4-yl)-2,8-diazaspiro[4.5]decane-3-carboxylate] | No | No | No | Yes | No | 0.005 |  | 
2 | Nc1nc(O[C@H](c2ccc(Cl)cc2-c2ccccc2)C(F)(F)F)cc(N2CCC3(CC2)CN[C@H](C(=O)O)C3)n1 [Rodatristat, (S)-8-(2-amino-6-((R)-1-(5-chloro-[1,1′-biphenyl]-2-yl)-2,2,2-trifluoroeth-oxy)pyrimidin-4-yl)-2,8-diazaspiro[4.5]decane-3-carboxylic acid] | No^a | No | No | Yes | No | 0.009 | 30% | 99.1%
